According to PubChem BioAssay (NCI):
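All cell lines were grown in 96-well plates and treated with compound for 48 hours. The concentration for 50% growth inhibition is given as GI50. TGI denotes the concentration required for complete inhibition of growth.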

How the values were obtained:
Assay in all cases: NCI anticancer screen, dose series, 48 h
EKVX NSCLC = tested on: EKVX NSCLC
HCT-116 colon = tested on: HCT-116 colon
HOP-62 NSCLC = tested on: HOP-62 NSCLC
M14 melanoma = tested on: M14 melanoma
OVCAR-4 ovarian = tested on: OVCAR-4 ovarian
OVCAR-5 ovarian = tested on: OVCAR-5 ovarian
OVCAR-8 ovarian = tested on: OVCAR-8 ovarian
SK-MEL-5 melanoma = tested on: SK-MEL-5 melanoma
U251 CNS = tested on: U251 CNS
UACC-257 melanoma = tested on: UACC-257 melanoma

Row | Structure (SMILES) | GI50 (EKVX NSCLC) [µM] | TGI (EKVX NSCLC) [µM] | GI50 (HCT-116 colon) [µM] | TGI (HCT-116 colon) [µM] | GI50 (HOP-62 NSCLC) [µM] | TGI (HOP-62 NSCLC) [µM] | GI50 (M14 melanoma) [µM] | TGI (M14 melanoma) [µM] | GI50 (OVCAR-4 ovarian) [µM] | TGI (OVCAR-4 ovarian) [µM] | GI50 (OVCAR-5 ovarian) [µM] | TGI (OVCAR-5 ovarian) [µM] | GI50 (OVCAR-8 ovarian) [µM] | TGI (OVCAR-8 ovarian) [µM] | GI50 (SK-MEL-5 melanoma) [µM] | TGI (SK-MEL-5 melanoma) [µM] | GI50 (U251 CNS) [µM] | TGI (U251 CNS) [µM] | GI50 (UACC-257 melanoma) [µM] | TGI (UACC-257 melanoma) [µM]
1 | CC1(N)CCN(c2cnc(-c3cccc(Cl)c3Cl)c(N)n2)CC1 | 2.58 | > 100 | 14.5 | 29 | 4.28 | 61.5 | 16.4 | 33.2 | 7.47 | > 100 | 27.7 | > 100 | 28.2 | > 100 | 15.2 | 28.6 | 9.02 | 91.2 | 17 | 35.2
2 | CN(C)CCNc1c2ccccc2nc2oc3ccccc3c12 | 6.49 | 32.2 | 4.16 | 23.7 | 7.97 | 42.6 | 11.3 | 32.5 | 9.45 | 37.9 | 20.6 | 49.7 | 6.66 | > 100 | 8.09 | 20.5 | 7.87 | 24.7 | 7.88 | 27
3 | CCc1ccc(C(=Nc2ccc(N(C)C(=O)CN3CCN(C)CC3)cc2)c2c(O)[nH]c3ccc(C(=O)OC)cc23)cc1 | 0.788 | 2.36 | 0.0995 | 1.12 | 0.51 | 2.17 | 0.368 | 1.69 | 0.582 | 1.95 | 1.25 | 2.57 | 0.772 | 3.21 | 1.2 | 2.47 | 0.59 | 2.02 | 1.54 | 3.2
4 | NC1=NN(c2ccccc2)C(=O)C1C(=O)C(=O)Nc1nccs1 (stereo not given) |  | > 100 |  | > 100 |  | > 100 |  | > 100 |  | > 100 |  | > 100 |  | > 100 |  | > 100 |  | > 100 |  | > 100
5 | CC1(C)NCCC[C@]2(C)[C@H]3CC[C@@H]4[C@H]5[C@H](C(=O)/C=C/c6ccccn6)CC[C@]5(CO)CC[C@@]4(C)[C@]3(C)CC[C@@H]12 | 5.51 | 23.4 | 1.72 | 3.15 | 6.23 | 29.4 | 1.81 | 3.56 | 3.51 | 13 | 3.69 | 16.9 | 2.02 | 4.54 | 2 | 4.07 | 1.68 | 3.24 | 3.99 | 19
6 | Nc1n[n+](-c2ccccc2)no1 |  | > 100 |  | > 100 |  | > 100 |  | > 100 |  | > 100 |  | > 100 |  | > 100 |  | > 100 |  | > 100 |  | > 100
7 | CN(Cc1cc(Br)cc(Br)c1O)Cc1c(O)ccc2ccccc12 |  | 35.8 |  | 40.6 |  | 38.9 |  | 41.5 |  | 34.9 |  | 37.1 |  | 60 |  | 33.1 |  | 41 |  | 37.5
8 | O=C1C2CCN(CC2)C1(CO)CO |  | 99.4 |  | 30.9 |  | > 100 |  | 38.8 |  | 43 |  | 45.9 |  | 74.7 |  | > 73.3 |  | > 75.5 |  | 37.7
9 | CN1CCN(c2ccc(NC(=O)c3cncnc3Nc3ccc(OCc4ccccn4)c(Cl)c3)cc2)CC1 | 6.25 | 14.6 | 0.788 | 1.91 | 4.31 | 10.7 | 0.65 | 1.4 | 4.69 | 12.4 | 3.5 | 9.11 | 5.4 | 15.3 | 1.77 | 6.01 | 2.64 | 8.53 | 0.718 | 1.61
10 | CC(=O)[CH-]C(=O)c1ccccc1.CC(=O)[CH-]C(=O)c1ccccc1.Cc1cc([O-])ccc1Cl.Cc1cc([O-])ccc1Cl.[Ti+4] | 18 | 47.3 | 35 | > 100 | 19.5 | 70.9 | 23.1 | 52.5 | 40.8 | > 100 | 32.7 | > 100 | 16.8 | 59.1 | 19.3 | 44.9 | 22.1 | > 100 | 27.1 | 92.4
11 | C=C1C(=O)O[C@H]2[C@H]1CC/C(COC(=O)C(C)c1ccc(CC(C)C)cc1)=C\CC[C@@]1(C)O[C@@H]21 (stereo not given in full) | 1.75 | 3.35 | 0.187 | 0.376 | 1.88 | 4.26 | 0.688 | 2.13 | 1.71 | 3.35 | 1.8 | 3.46 | 1.32 | 3.51 | 1.6 | 2.96 | 1.49 | 2.89 | 1.66 | 3.32
12 | O=NNc1ccc(Sc2ccc(NN=O)cn2)nc1 |  | > 100 |  | > 100 |  | > 100 |  | > 100 |  | > 100 |  | > 100 |  | > 100 |  | > 100 |  | > 100 |  | > 100
13 | O=C(N/N=C1\C(=O)N(c2nccs2)C(=O)C(=O)C1c1nc2ccccc2s1)c1ccccc1O (stereo not given) |  | > 100 |  | > 100 |  | 90.4 |  | > 100 |  | > 100 |  | > 100 |  | > 100 |  | > 100 |  | > 100 |  | > 100
14 | C=C1CC2CC(O)CC(C1)C2 (stereo not given) |  | > 100 |  | > 100 |  | > 100 |  | > 100 |  | > 100 |  | > 100 |  | > 100 |  | > 100 |  | > 100 |  | > 100
15 | CC(=O)O[C@H]1[C@@H]2OC(=O)C(CSc3ccccc3)[C@@H]2C[C@H]2O[C@]2(C)CC/C=C(\C)CCC[C@@H]1C (stereo not given in full) | 3.27 | 12.9 | 1.46 | 2.91 | 9.29 | 32.5 | 2.13 | 5.37 | 2.98 | 10.9 | 12.4 | 33.7 | 3.77 | 29.5 | 2.57 | 8.65 | 3.97 | 16.5 | 5.07 | 19.2
